ChEMBL document CHEMBL3885881, “DrugMatrix”

Organism: Rattus norvegicus
Experiment: DrugMatrix - Regimen: Daily Repeat
Type: toxicity, organism-based, Sprague-Dawley
Design: regimen Daily Repeat, gender Male, age 6-8 weeks
Settings: in vivo, po, route oral GAVAGE, vehicle .5 % CMC; for ABSOLUTE BASOPHIL / ABSOLUTE EOSINOPHIL / ABSOLUTE LYMPHOCYTE / ABSOLUTE MONOCYTE / ABSOLUTE SEGMENTED NEUTROPHIL / BASOPHIL / EOSINOPHIL / ERYTHROCYTE COUNT / HEMATOCRIT / HEMOGLOBIN / LEUKOCYTE COUNT / LYMPHOCYTE / MEAN CORPUSCULAR HEMOGLOBIN / MEAN CORPUSCULAR HEMOGLOBIN CONCENTRATION / MEAN CORPUSCULAR VOLUME / MONOCYTE / NEUTROPHIL / NUCLEATED RED BLOOD CELLS / PLATELET COUNT: tissue Blood; for ALANINE AMINOTRANSFERASE / ALBUMIN / ALKALINE PHOSPHATASE / ASPARTATE AMINOTRANSFERASE / BLOOD UREA NITROGEN / CARBON DIOXIDE / CHLORIDE / CHOLESTEROL / CREATINE PHOSPHOKINASE / CREATININE / GLUCOSE / LACTATE DEHYDROGENASE / LIPASE / PHOSPHORUS / POTASSIUM / SODIUM / TOTAL BILIRUBIN / TOTAL PROTEIN / URIC ACID: tissue Plasma
[1] = 580 mg/kg, 120 h, dose level High, time 5 day
[2] = […], 72 h, dose 2.4 mg/Kg, dose level Low, time 3 day
[3] = […], 120 h, dose 2.4 mg/Kg, dose level Low, time 5 day

CN1C(=O)COc2c(C(=O)NC3CN4CCC3CC4)cc(Cl)cc21 (centres undefined) [AZASETRON]
ABSOLUTE BASOPHIL [1]: 0 CELLS/uL
ABSOLUTE EOSINOPHIL [1]: 63.33 CELLS/uL
ABSOLUTE LYMPHOCYTE [1]: 14100 CELLS/uL
ABSOLUTE MONOCYTE [1]: 291 CELLS/uL
ABSOLUTE SEGMENTED NEUTROPHIL [1]: 979 CELLS/uL
BASOPHIL [1]: 0%
EOSINOPHIL [1]: 0.33%
ERYTHROCYTE COUNT [1]: 6.34 x10E6/uL
HEMATOCRIT [1]: 38%
HEMOGLOBIN [1]: 15.07 G/DL
LEUKOCYTE COUNT [1]: 15.43 x10E3/uL
LYMPHOCYTE [1]: 91.67%
MEAN CORPUSCULAR HEMOGLOBIN [1]: 23.8 pg
MEAN CORPUSCULAR HEMOGLOBIN CONCENTRATION [1]: 39.67 G/DL
MEAN CORPUSCULAR VOLUME [1]: 60 fL
MONOCYTE [1]: 2%
NEUTROPHIL [1]: 6%
NUCLEATED RED BLOOD CELLS [1]: 0 /100WBC
PLATELET COUNT [1]: 1316.67 x10E3/uL
ALANINE AMINOTRANSFERASE [1]: 58.33 u/L
ALBUMIN [1]: 4.3 G/DL
ALKALINE PHOSPHATASE [1]: 295 u/L
ASPARTATE AMINOTRANSFERASE [1]: 101.33 u/L
BLOOD UREA NITROGEN [1]: 21.67 mg/dL
CARBON DIOXIDE [1]: 24 mmol/L
CHLORIDE [1]: 100.67 MEQ/L
CHOLESTEROL [1]: 74.33 mg/dL
CREATINE PHOSPHOKINASE [1]: 955.33 u/L
CREATININE [1]: 0.23 mg/dL
GLUCOSE [1]: 160 mg/dL
LACTATE DEHYDROGENASE [1]: 604.33 u/L
LIPASE [1]: 10.33 u/L
PHOSPHORUS [1]: 12.33 mg/dL
POTASSIUM [1]: 6.37 MEQ/L
SODIUM [1]: 144.33 MEQ/L
TOTAL BILIRUBIN [1]: 0.2 mg/dL
TOTAL PROTEIN [1]: 6.2 G/DL
URIC ACID [1]: 2.43 mg/dL
ABSOLUTE BASOPHIL [2]: 0 CELLS/uL
ABSOLUTE EOSINOPHIL [2]: 0 CELLS/uL
ABSOLUTE LYMPHOCYTE [2]: 13884.67 CELLS/uL
ABSOLUTE MONOCYTE [2]: 148 CELLS/uL
ABSOLUTE SEGMENTED NEUTROPHIL [2]: 1867.33 CELLS/uL
BASOPHIL [2]: 0%
EOSINOPHIL [2]: 0%
ERYTHROCYTE COUNT [2]: 5.62 x10E6/uL
HEMATOCRIT [2]: 34.23%
HEMOGLOBIN [2]: 13.3 G/DL
LEUKOCYTE COUNT [2]: 15.9 x10E3/uL
LYMPHOCYTE [2]: 87.33%
MEAN CORPUSCULAR HEMOGLOBIN [2]: 23.7 pg
MEAN CORPUSCULAR HEMOGLOBIN CONCENTRATION [2]: 38.87 G/DL
MEAN CORPUSCULAR VOLUME [2]: 60.97 fL
MONOCYTE [2]: 1%
NEUTROPHIL [2]: 11.67%
NUCLEATED RED BLOOD CELLS [2]: 0 /100WBC
PLATELET COUNT [2]: 1219.67 x10E3/uL
ALANINE AMINOTRANSFERASE [2]: 63.67 u/L
ALBUMIN [2]: 4.13 G/DL
ALKALINE PHOSPHATASE [2]: 374.67 u/L
ASPARTATE AMINOTRANSFERASE [2]: 87.33 u/L
BLOOD UREA NITROGEN [2]: 18.33 mg/dL
CARBON DIOXIDE [2]: 30.67 mmol/L
CHLORIDE [2]: 98.33 MEQ/L
CHOLESTEROL [2]: 73 mg/dL
CREATINE PHOSPHOKINASE [2]: 308.67 u/L
CREATININE [2]: 0.17 mg/dL
GLUCOSE [2]: 148.33 mg/dL
LACTATE DEHYDROGENASE [2]: 222 u/L
LIPASE [2]: 10 u/L
PHOSPHORUS [2]: 11.57 mg/dL
POTASSIUM [2]: 6.45 MEQ/L
SODIUM [2]: 141.9 MEQ/L
TOTAL BILIRUBIN [2]: 0.17 mg/dL
TOTAL PROTEIN [2]: 5.83 G/DL
URIC ACID [2]: 1.37 mg/dL
ABSOLUTE BASOPHIL [3]: 0 CELLS/uL
ABSOLUTE EOSINOPHIL [3]: 0 CELLS/uL
ABSOLUTE LYMPHOCYTE [3]: 13149.67 CELLS/uL
ABSOLUTE MONOCYTE [3]: 243.33 CELLS/uL
ABSOLUTE SEGMENTED NEUTROPHIL [3]: 1007 CELLS/uL
BASOPHIL [3]: 0%
EOSINOPHIL [3]: 0%
ERYTHROCYTE COUNT [3]: 5.6 x10E6/uL
HEMATOCRIT [3]: 35%
HEMOGLOBIN [3]: 14 G/DL
LEUKOCYTE COUNT [3]: 14.4 x10E3/uL
LYMPHOCYTE [3]: 91.33%
MEAN CORPUSCULAR HEMOGLOBIN [3]: 25.1 pg
MEAN CORPUSCULAR HEMOGLOBIN CONCENTRATION [3]: 40 G/DL
MEAN CORPUSCULAR VOLUME [3]: 62.67 fL
MONOCYTE [3]: 1.67%
NEUTROPHIL [3]: 7%
NUCLEATED RED BLOOD CELLS [3]: 0 /100WBC
PLATELET COUNT [3]: 1192 x10E3/uL
ALANINE AMINOTRANSFERASE [3]: 54.33 u/L
ALBUMIN [3]: 4.1 G/DL
ALKALINE PHOSPHATASE [3]: 274.67 u/L
ASPARTATE AMINOTRANSFERASE [3]: 82 u/L
BLOOD UREA NITROGEN [3]: 18.67 mg/dL
CARBON DIOXIDE [3]: 28.67 mmol/L
CHLORIDE [3]: 99.67 MEQ/L
CHOLESTEROL [3]: 72 mg/dL
CREATINE PHOSPHOKINASE [3]: 240 u/L
CREATININE [3]: 0.19 mg/dL
GLUCOSE [3]: 154.67 mg/dL
LACTATE DEHYDROGENASE [3]: 169 u/L
LIPASE [3]: 10 u/L
PHOSPHORUS [3]: 10.83 mg/dL
POTASSIUM [3]: 6.08 MEQ/L
SODIUM [3]: 143.3 MEQ/L
TOTAL BILIRUBIN [3]: 0.27 mg/dL
TOTAL PROTEIN [3]: 6 G/DL
URIC ACID [3]: 1.3 mg/dL
